Experimental data: patent US6596882B2, “Recovery and purification of 3,4-epoxy-1-butene using water-miscible solvents” (Eastman Chemical Company, priority 2001, dated 2003)

Columns and labels:
[1] = Relative distribution coefficient of epoxybutene into the aqueous phase in the presence of a water-miscible solvent; assay type: physicochemical; conditions: one part solvent added to two parts of 2:1 water-epoxybutene mixture, room temperature, aqueous phase by GC; relative to water alone (=1.00)
Description: This example compares the absorption affinity of various water-miscible solvents for epoxybutene in the presence of water, as occurs in the absorbent zone of the present invention. A standard mixture of 2 parts by weight water and one part by weight epoxybutene was prepared. A portion of the standard solution was placed in a separatory funnel, shaken, allowed to settle, then separated into two liquid phases at room temperature. The water phase was analyzed by gas chromatography to determine the solubility of epoxybutene in pure water. Next, for each solvent specified in Table I, one part by weight water-miscible solvent was added to two parts of the standard water-epoxybutene solution. Each water-solvent-epoxybutene solution was placed in a separatory funnel, shaken, allowed to settle, then separated into two liquid phases at room temperature. The aqueous phase from the decantation was analyzed by gas chromatography to determine the epoxybutene solubility in that phase. From these compositions, distribution coefficients were calculated as: [formula]
The relative affinity of solvents for absorption of epoxybutene was determined from a relative molar distribution term, calculated as: [formula]

[2] = Rate of epoxybutene hydrolysis in phosphate buffers at different pH, followed by UV spectrophotometry; assay type: physicochemical
Description: The rate of epoxybutene hydrolysis was determined at several different pH levels according to the following procedure: A stirred, thermostatted cell was filled with a solution of buffered water and allowed to equilibrate at a temperature of 29° C. Phosphate buffers at a pH of 3, 5, 7, 8, 9, and 11 were prepared by adding either phosphoric acid or sodium hydroxide to a 0.05 M solution of disodium phosphate. For each experiment, the buffer solution was charged to a stirred, thermostatted equilibrium cell equipped with an UV spectrophometer probe. Once the solution had equilibrated at 29° C. and a background spectra had been collected, a 10 microliter standard sample of epoxybutene in acetronitrile (warmed to 29° C.) was injected into the cell to give an initial concentration of 0.01M epoxybutene. The disappearance of epoxybutene and formation of 3-butene-1,2-diol over time was followed by UV spectrophotometry.

[3] = 25° C.; cited from earlier work

SMILES | Relative Distribution [1] | other results
CN(C)C=O [Dimethylformamide] | 2.44 | 
C[S+](C)[O-] [Dimethylsulfoxide] | 1.40 | 
CCCOCCO [2-Propoxyethanol] | 1.49 | 
c1ccc2ncccc2c1 [Quinoline] | 1.03 | 
COCCOCCOCCOC [Triglyme] | 1.54 | 
CN1CCCC1=O [1-Methyl-2-Pyrrolidinone] | 2.78 | 
CC#N [Acetonitrile] | 1.89 | 
COCCOCCO [2-(2-Methoxyethoxy)ethanol] | 1.83 | 
C=CC(O)CO (stereo not shown) [3-Buten-1,2-Diol] | 1.39 | 
CC(O)CO (stereo not shown) [Propylene Glycol] | 1.90 | 
C=CC1CO1 (stereo not shown) [Epoxybutene, 3,4-epoxy-1-butene] |  | Relative Rate of Epoxybutene Hydrolysis ([2]; pH 3, phosphate buffer, 29° C., relative to pH 7): 555.5; Relative Rate of Epoxybutene Hydrolysis ([2]; pH 3, phosphate buffer, 29° C., relative to pH 7, listed as epoxybutene): over 500; Relative Rate of Epoxybutene Hydrolysis ([2]; pH 5, phosphate buffer, 29° C., relative to pH 7): 5.6; Relative Rate of Epoxybutene Hydrolysis ([2]; pH 7, phosphate buffer, 29° C. (reference)): 1.0; Relative Rate of Epoxybutene Hydrolysis ([2]; pH 8, phosphate buffer, 29° C., relative to pH 7): 0.7; Relative Rate of Epoxybutene Hydrolysis ([2]; pH 8, phosphate buffer, 29° C., relative to pH 7, listed as epoxybutene): about 0.7; Relative Rate of Epoxybutene Hydrolysis ([2]; pH 9, phosphate buffer, 29° C., relative to pH 7): 3.2; Relative Rate of Epoxybutene Hydrolysis ([2]; pH 11, phosphate buffer, 29° C., relative to pH 7): 17.6; Relative Rate of Epoxybutene Hydrolysis ([2]; pH 11, phosphate buffer, 29° C., relative to pH 7, listed as epoxybutene): over 17; solubility of epoxybutene in water [3]: 5 to 6 weight percent
COCC(C)O (stereo not shown) [Propylene Glycol Monomethyl Ether] | 2.02 | 
OCCO [Ethylene Glycol] | 1.14 | 
CCCCOCCO [2-Butoxyethanol] | 1.29 | 
CCCCOCCOCCO [2-(2-Butoxyethoxy)ethanol] | 4.30 | 
COC(C)COC(C)=O (stereo not shown) [2-Methoxypropyl Acetate] | 1.05 | 
